The values that follow come from US8124744B2, “Macrolide derivatives” (Taisho Pharmaceutical Co., Ltd., priority 2006, dated 2012).

Each structure is given as a SMILES string. ≈ marks a conversion by molar mass, not a printed value.

Experiment [1] concerns Staphylococcus aureus ATCC29213. The experiment is described as follows: Minimal inhibitory concentration (MIC). Type of experiment: cell-based. How it is done:
(§1) To 7- to 9-week male C57BL/6J mice (purchased from CLEA Japan, Inc. or Japan SLC, Inc.), Zymosan A (SIGMA) derived from budding yeasts which is adjusted to be 1 mg/ml in a phosphate buffer solution (PBS, 10010-49, Invitrogen) was administered intraperitoneally at 1 ml per mouse to induce peritonitis. Three days later, filter-sterilized cell recovery buffer (2 mM EDTA, 0.5% bovine serum albumin, PBS, pH 7.4) was administered intraperitoneally at 5 ml per mouse to recover peritoneal exudata cells. The cells went through a cell strainer (70 μm nylon, FALCON) and were then washed twice with a Hanks solution (Invitrogen). The cells were suspended in 10% fetal calf serum-containing Dulbecco's modified Eagle's culture medium (Invitrogen). The suspension was seeded on a plate with 48 wells, after 6 hours, the culture medium was completely exchanged. After culturing for another 18 hours, test compounds were added at 0.02 to 20 μM of the final concentration. After 1 hour from the addition of the compounds, a tumor necrosis factor (TNF) α (R & D Systems) was added at 25 ng/ml of the final concentration, and 24 hours later, the culture supernatant was collected. The amount of pro MMP-9 protein in the supernatant was quantified by an enzyme-linked immunosorbent assay (ELISA) (R & D Systems), IC50 values of the test compounds on the increased amount by TNF α stimuli, were calculated by ORIGIN analysis software (trade name: OriginLab). In addition, minimal inhibitory concentration (MIC) of each test compounds (measured bacterium: Staphylococcus aureus ATCC29213) was measured. As a comparative agent […] A (clarithromycin) was used.

For experiment [2], the system named is pro MMP-9 protein. The experiment is described as follows: Inhibitory activity against proMMP-9 protein production (TNF α-stimulated mouse peritoneal exudate cells, ELISA). The experiment is classed as cell-based, C57BL/6J mice. The following applies: relative activity when the value of Comparative Agent 1 (IC50 = 10.04 ± 4.11 μM) is 10, on the increase of pro MMP-9 by TNF α 25 ng/ml, 24 hours, read-out: IC50 (μM)*. How it is done:
as §1

Consider `CC[C@H]1OC(=O)[C@H](C)[C@@H](O[C@H]2C[C@@](C)(OC)[C@@H](O)[C@H](C)O2)[C@H](C)[C@@H](O[C@@H]2O[C@H](C)C[C@@H](N(C)Cc3ccccc3)[C@@H]2N(C)C)[C@@](C)(OC)C[C@@H](C)C(=O)[C@H](C)[C@@H](O)[C@]1(C)O` [Example 171, 3′-N-demethyl-2′-deoxy-2′-dimethylamino-3′-N-benzyl-6-O-methylerythromycin A], for which, in experiment [1], the MIC is > 128 µg/mL. Also, the IC50 in experiment [2] came out at 1.45 µM.

`CC[C@H]1OC(=O)[C@H](C)[C@@H](O[C@H]2C[C@@](C)(OC)[C@@H](O)[C@H](C)O2)[C@H](C)[C@@H](O[C@@H]2O[C@H](C)C[C@@H](N(C)CCO)[C@@H]2N(C)C)[C@@](C)(OC)C[C@@H](C)C(=O)[C@H](C)[C@@H](O)[C@]1(C)O` [Example 173, 3′-N-demethyl-2′-deoxy-2′-dimethylamino-3′-N-(2-hydroxyethyl)-6-O-methylerythromycin A]: in experiment [1], the MIC is > 128 µg/mL. Also, the IC50 in experiment [2] turned out to be 4.95 µM.

In the case of `CC[C@H]1OC(=O)[C@H](C)[C@@H](O[C@H]2C[C@@](C)(OC)[C@@H](OC(C)=O)[C@H](C)O2)[C@H](C)[C@@H](O[C@@H]2O[C@H](C)C[C@@H](NC)[C@@H]2N(C)C)[C@@](C)(OC)C[C@@H](C)C(=O)[C@H](C)[C@@H](O)[C@]1(C)O` [Example 174, 4″-O-acetyl-3′-N-demethyl-2′-deoxy-2′-dimethylamino-6-O-methylerythromycin A], the MIC in experiment [1] is > 128 µg/mL. The IC50 in experiment [2] stood at 1.7 µM.

As to `CC[C@H]1OC(=O)[C@H](C)[C@@H](O[C@H]2C[C@@](C)(OC)[C@@H](O)[C@H](C)O2)[C@H](C)[C@@H](O[C@@H]2O[C@H](C)C[C@@H](NC)[C@@H]2N(C)C)[C@@](C)(OC)C[C@@H](C)C(=O)[C@H](C)[C@@H](O)[C@]1(C)O` [Example 175, 3′-N-demethyl-2′-deoxy-2′-dimethylamino-6-O-methylerythromycin A], in experiment [1], 128 µg/mL (≈ 168 µM) was the least that counted as inhibitory (MIC). In addition, the 50% inhibitory concentration (IC50) in experiment [2] came out at 1.65 µM.

`CC[C@H]1OC(=O)[C@H](C)[C@@H](O[C@H]2C[C@@](C)(OC)[C@@H](OC(C)=O)[C@H](C)O2)[C@H](C)[C@@H](O[C@@H]2O[C@H](C)C[C@@H](N3CCOCC3)[C@@H]2N(C)C)[C@@](C)(OC)C[C@@H](C)C(=O)[C@H](C)[C@@H](O)[C@]1(C)O` [Example 177, 4″-O-acetyl-3′-dedimethylamino-2′-deoxy-2′-dimethylamino-3′-(4-morpholino)-6-O-methylerythromycin A]: the MIC in experiment [1] was > 128 µg/mL. Besides, the IC50 in experiment [2] amounted to 4.42 µM.

Turning to `CC[C@H]1OC(=O)[C@H](C)[C@@H](O[C@H]2C[C@@](C)(OC)[C@@H](O)[C@H](C)O2)[C@H](C)[C@@H](O[C@@H]2O[C@H](C)C[C@@H](N3CCOCC3)[C@@H]2N(C)C)[C@@](C)(OC)C[C@@H](C)C(=O)[C@H](C)[C@@H](O)[C@]1(C)O` [Example 178, 3′-dedimethylamino-2′-deoxy-2′-dimethylamino-3′-(4-morpholino)-6-O-methylerythromycin A], the MIC in experiment [1] is > 128 µg/mL. In experiment [2], the IC50 turned out to be 3.1 µM.

Turning to `CC[C@H]1OC(=O)[C@H](C)[C@@H](O[C@H]2C[C@@](C)(OC)[C@@H](O)[C@H](C)O2)[C@H](C)[C@@H](O[C@@H]2O[C@H](C)C[C@@H](N(C)Cc3ccc(N4CCOCC4)cc3)[C@@H]2N(C)C)[C@@](C)(OC)C[C@@H](C)C(=O)[C@H](C)[C@@H](O)[C@]1(C)O` [Example 182, 3′-N-demethyl-2′-deoxy-2′-dimethylamino-3′-N-(4-(4-morpholino)benzyl)methyl-6-O-methylerythromycin A], the MIC in experiment [1] was > 128 µg/mL. Also, in experiment [2], the IC50 stood at 1.72 µM.

Turning to `CC[C@H]1OC(=O)[C@H](C)[C@@H](O[C@H]2C[C@@](C)(OC)[C@@H](OC(C)=O)[C@H](C)O2)[C@H](C)[C@@H](O[C@@H]2O[C@H](C)C[C@@H](N(C)S(C)(=O)=O)[C@@H]2N(C)C)[C@@](C)(OC)C[C@@H](C)C(=O)[C@H](C)[C@@H](O)[C@]1(C)O` [Example 185, 4″-O-acetyl-3′-N-demethyl-2′-deoxy-2′-dimethylamino-3′-N-methanesulfonyl-6-O-methylerythromycin A], in experiment [1], the minimal inhibitory concentration (MIC) was > 128 µg/mL. In addition, the IC50 in experiment [2] was 2.4 µM.

In the case of `CC[C@H]1OC(=O)[C@H](C)[C@@H](O[C@H]2C[C@@](C)(OC)[C@@H](O)[C@H](C)O2)[C@H](C)[C@@H](O[C@@H]2O[C@H](C)C[C@@H](N(C)S(C)(=O)=O)[C@@H]2N(C)C)[C@@](C)(OC)C[C@@H](C)C(=O)[C@H](C)[C@@H](O)[C@]1(C)O` [Example 186, 3′-N-demethyl-2′-deoxy-2′-dimethylamino-3′-N-methanesulfonyl-6-O-methylerythromycin A], the MIC in experiment [1] is > 128 µg/mL. Further, the concentration for half-maximal inhibition (IC50) in experiment [2] was 4.01 µM.

`CC[C@H]1OC(=O)[C@H](C)[C@@H](O[C@H]2C[C@@](C)(OC)[C@@H](OC(C)=O)[C@H](C)O2)[C@H](C)[C@@H](O[C@@H]2O[C@H](C)C[C@@H](N(C)Cc3ccncc3)[C@@H]2N(C)C)[C@@](C)(OC)C[C@@H](C)C(=O)[C@H](C)[C@@H](O)[C@]1(C)O` [Example 187, 4″-O-acetyl-3′-N-demethyl-2′-deoxy-2′-dimethylamino-3′-N-(4-pyridylmethylamino)-6-O-methylerythromycin A]: in experiment [1], the MIC was > 128 µg/mL. Further, in experiment [2], the concentration for half-maximal inhibition (IC50) amounted to 1.37 µM.

Take `CC[C@H]1OC(=O)[C@H](C)[C@@H](O[C@H]2C[C@@](C)(OC)[C@@H](O)[C@H](C)O2)[C@H](C)[C@@H](O[C@@H]2O[C@H](C)C[C@@H](N(C)Cc3ccncc3)[C@@H]2N(C)C)[C@@](C)(OC)C[C@@H](C)C(=O)[C@H](C)[C@@H](O)[C@]1(C)O` [Example 188, 3′-N-demethyl-2′-deoxy-2′-dimethylamino-3′-N-(4-pyridylmethyl)-6-O-methylerythromycin A]: the MIC in experiment [1] is > 128 µg/mL. For the same compound, the IC50 in experiment [2] was 3.24 µM.

Turning to `CC[C@H]1OC(=O)[C@H](C)[C@@H](O[C@H]2C[C@@](C)(OC)[C@@H](OC(C)=O)[C@H](C)O2)[C@H](C)[C@@H](O[C@@H]2O[C@H](C)C[C@@H](N(C)Cc3cccnc3)[C@@H]2N(C)C)[C@@](C)(OC)C[C@@H](C)C(=O)[C@H](C)[C@@H](O)[C@]1(C)O` [Example 189, 4″-O-acetyl-3′-N-demethyl-2′-deoxy-2′-dimethylamino-3′-N-(3-pyridylmethyl)-O-methylerythromycin A], the MIC in experiment [1] is > 128 µg/mL. Moreover, the IC50 in experiment [2] came to 3.38 µM.

As to `CC[C@H]1OC(=O)[C@H](C)[C@@H](O[C@H]2C[C@@](C)(OC)[C@@H](O)[C@H](C)O2)[C@H](C)[C@@H](O[C@@H]2O[C@H](C)C[C@@H](N(C)Cc3cccnc3)[C@@H]2N(C)C)[C@@](C)(OC)C[C@@H](C)C(=O)[C@H](C)[C@@H](O)[C@]1(C)O` [Example 190, 3′-N-demethyl-2′-deoxy-2′-dimethylamino-3′-N-(3-pyridylmethyl)-6-O-methylerythromycin A], the MIC in experiment [1] is > 128 µg/mL. Moreover, the IC50 in experiment [2] was 3.82 µM.

In turn, `CC[C@H]1OC(=O)[C@H](C)[C@@H](O[C@H]2C[C@@](C)(OC)[C@@H](OC(C)=O)[C@H](C)O2)[C@H](C)[C@@H](O[C@@H]2O[C@H](C)C[C@@H](N(C)Cc3ccccn3)[C@@H]2N(C)C)[C@@](C)(OC)C[C@@H](C)C(=O)[C@H](C)[C@@H](O)[C@]1(C)O` [Example 191, 4″-O-acetyl-3′-N-demethyl-2′-deoxy-2′-dimethylamino-3′-N-(2-pyridylmethyl)-6-O-methylerythromycin A] gave an MIC in experiment [1] of 128 µg/mL (≈ 143 µM). Further, the IC50 in experiment [2] is 1.42 µM.

For the compound `CC[C@H]1OC(=O)[C@H](C)[C@@H](O[C@H]2C[C@@](C)(OC)[C@@H](O)[C@H](C)O2)[C@H](C)[C@@H](O[C@@H]2O[C@H](C)C[C@@H](N(C)Cc3ccccn3)[C@@H]2N(C)C)[C@@](C)(OC)C[C@@H](C)C(=O)[C@H](C)[C@@H](O)[C@]1(C)O` [Example 192, 3′-N-demethyl-2′-deoxy-2′-dimethylamino-3′-N-(2-pyridylmethyl)-6-O-methylerythromycin A], the MIC in experiment [1] was > 128 µg/mL. The IC50 in experiment [2] was 2.46 µM.

Consider `CC[C@H]1OC(=O)[C@H](C)[C@@H](O[C@H]2C[C@@](C)(OC)[C@@H](O)[C@H](C)O2)[C@H](C)[C@@H](O[C@@H]2O[C@H](C)C[C@@H](N(C)CCc3ccccc3)[C@@H]2N(C)C)[C@@](C)(OC)C[C@@H](C)C(=O)[C@H](C)[C@@H](O)[C@]1(C)O` [Example 194, 3′-N-demethyl-2′-deoxy-2′-dimethylamino-3′-N-(2-phenethyl)-6-O-methylerythromycin A], for which the MIC in experiment [1] is > 128 µg/mL. Further, in experiment [2], the half-inhibitory concentration (IC50) turned out to be 1.23 µM.

Take `CC[C@H]1OC(=O)[C@H](C)[C@@H](O[C@H]2C[C@@](C)(OC)[C@@H](OC(C)=O)[C@H](C)O2)[C@H](C)[C@@H](O[C@@H]2O[C@H](C)C[C@@H](N(C)CCCO)[C@@H]2N(C)C)[C@@](C)(OC)C[C@@H](C)C(=O)[C@H](C)[C@@H](O)[C@]1(C)O` [Example 198, 4″-O-acetyl-3′-N-demethyl-2′-deoxy-2′-dimethylamino-3′-N-(3-hydroxypropyl)-6-O-methylerythromycin A]: the MIC in experiment [1] was > 128 µg/mL. Moreover, in experiment [2], the IC50 was found to be 2.88 µM.

One may read the MIC as the least concentration at which growth counts as inhibited. Broadly, the IC50 is the concentration that inhibits the measured activity by half.
